Experimental data published in ChEMBL document CHEMBL1909046, “DrugMatrix in vitro pharmacology data”.

Assays:
[1] = DRUGMATRIX: Calcium Channel Type L, Benzothiazepine radioligand binding (ligand: [3H] Diltiazem); type: cell membranes, Rattus norvegicus, Wistar, Brain, Membrane; conditions: Not Active = under 50% inhibition at 10 µM
[2] = DRUGMATRIX: Potassium Channel [KATP] radioligand binding (ligand: [3H] Glyburide); type: cell membranes, Membrane; conditions: hit-t15; Not Active = under 50% inhibition at 10 µM
[3] = DRUGMATRIX: ATPase, Na+/K+ enzyme inhibition (substrate: ATP); type: tissue-based, Sus scrofa, Heart; conditions: Not Active = under 50% inhibition at 10 µM
[4] = target: Melanocortin receptor 4 (Homo sapiens, UniProt P32245); type: cell membranes, Membrane; conditions: hek293; also: in other assays of this panel Not Active means under 50% inhibition at 10 µM
[5] = target: T1, Alpha-1B adrenergic receptor (Rattus norvegicus, UniProt P15823); assay: DRUGMATRIX: Alpha-1B adrenergic receptor radioligand binding (ligand: prazosin); type: cell membranes, Wistar, Liver, Membrane; conditions: Not Active = under 50% inhibition at 10 µM
T1 sequence (P15823 whole entry): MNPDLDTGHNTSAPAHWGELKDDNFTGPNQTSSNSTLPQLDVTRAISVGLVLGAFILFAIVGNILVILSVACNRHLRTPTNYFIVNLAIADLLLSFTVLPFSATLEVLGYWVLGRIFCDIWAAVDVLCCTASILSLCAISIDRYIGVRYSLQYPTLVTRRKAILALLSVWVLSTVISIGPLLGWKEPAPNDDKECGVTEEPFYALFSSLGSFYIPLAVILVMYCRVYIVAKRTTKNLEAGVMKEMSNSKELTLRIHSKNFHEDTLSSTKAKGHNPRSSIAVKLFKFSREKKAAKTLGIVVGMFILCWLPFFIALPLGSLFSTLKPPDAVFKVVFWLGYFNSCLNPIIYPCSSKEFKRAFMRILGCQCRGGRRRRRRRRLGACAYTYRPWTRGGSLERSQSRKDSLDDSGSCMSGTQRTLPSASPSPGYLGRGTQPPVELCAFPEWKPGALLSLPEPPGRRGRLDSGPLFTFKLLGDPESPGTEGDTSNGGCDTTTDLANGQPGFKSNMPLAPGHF

[6] = target: T2, Receptor-type tyrosine-protein phosphatase C (Homo sapiens, UniProt P08575); parameters: species or system Escherichia coli;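 also: inhibition of CD45 enzyme activity measured using DiFMUP as substrate; in other assays of this panel Not Active means under 50% inhibition at 10 µM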
T2 sequence (P08575 whole entry): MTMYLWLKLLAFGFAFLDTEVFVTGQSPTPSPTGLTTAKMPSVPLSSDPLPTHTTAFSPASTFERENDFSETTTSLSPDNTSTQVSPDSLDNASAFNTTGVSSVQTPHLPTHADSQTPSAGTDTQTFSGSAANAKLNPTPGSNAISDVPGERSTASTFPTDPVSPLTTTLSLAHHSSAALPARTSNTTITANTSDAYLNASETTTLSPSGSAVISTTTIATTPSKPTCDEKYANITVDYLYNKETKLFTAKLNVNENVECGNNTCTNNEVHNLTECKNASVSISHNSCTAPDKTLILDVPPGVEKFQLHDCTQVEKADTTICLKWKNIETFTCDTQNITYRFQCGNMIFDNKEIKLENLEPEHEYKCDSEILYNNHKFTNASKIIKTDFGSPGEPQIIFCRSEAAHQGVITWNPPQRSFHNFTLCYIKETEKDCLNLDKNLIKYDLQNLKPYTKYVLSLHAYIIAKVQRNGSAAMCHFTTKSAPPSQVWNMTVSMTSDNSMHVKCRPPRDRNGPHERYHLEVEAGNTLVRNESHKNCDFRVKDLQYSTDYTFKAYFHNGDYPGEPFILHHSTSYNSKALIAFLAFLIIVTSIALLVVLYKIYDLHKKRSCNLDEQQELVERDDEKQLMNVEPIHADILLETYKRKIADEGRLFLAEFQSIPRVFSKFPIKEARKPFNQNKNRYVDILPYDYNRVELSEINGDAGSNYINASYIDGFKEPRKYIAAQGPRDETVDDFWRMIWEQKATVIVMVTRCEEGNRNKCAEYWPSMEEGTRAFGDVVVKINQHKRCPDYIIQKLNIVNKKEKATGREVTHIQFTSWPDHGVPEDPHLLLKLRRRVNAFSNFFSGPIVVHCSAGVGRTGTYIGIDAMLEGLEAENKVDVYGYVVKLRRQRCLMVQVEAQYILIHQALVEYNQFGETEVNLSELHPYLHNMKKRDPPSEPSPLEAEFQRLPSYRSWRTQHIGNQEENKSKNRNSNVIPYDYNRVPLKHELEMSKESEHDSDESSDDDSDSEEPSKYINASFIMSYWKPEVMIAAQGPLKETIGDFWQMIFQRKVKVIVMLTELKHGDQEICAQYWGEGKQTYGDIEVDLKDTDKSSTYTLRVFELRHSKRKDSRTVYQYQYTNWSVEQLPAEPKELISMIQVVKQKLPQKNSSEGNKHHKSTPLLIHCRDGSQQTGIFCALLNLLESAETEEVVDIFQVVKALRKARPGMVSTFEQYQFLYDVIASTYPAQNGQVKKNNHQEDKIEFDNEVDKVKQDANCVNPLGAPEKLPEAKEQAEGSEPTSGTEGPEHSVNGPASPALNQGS

Sequence of Melanocortin receptor 4 (P32245 whole entry): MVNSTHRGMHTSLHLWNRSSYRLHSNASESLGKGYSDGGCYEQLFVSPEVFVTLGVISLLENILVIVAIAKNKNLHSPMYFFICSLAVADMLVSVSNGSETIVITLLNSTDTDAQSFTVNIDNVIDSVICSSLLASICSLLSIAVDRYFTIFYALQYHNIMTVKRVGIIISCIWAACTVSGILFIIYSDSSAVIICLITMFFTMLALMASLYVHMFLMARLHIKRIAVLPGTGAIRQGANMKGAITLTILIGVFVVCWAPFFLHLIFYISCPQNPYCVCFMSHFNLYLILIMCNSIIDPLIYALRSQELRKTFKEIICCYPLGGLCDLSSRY

CO[C@H]1[C@@H](O)[C@H](N)[C@@H](O[C@H]2O[C@H]([C@H](C)N)CC[C@H]2N)[C@H](O)[C@@H]1N(C)C(=O)CN [ASTROMICIN]
Not Active: IC50 [1] | Ki [1] | IC50 [2] | Ki [2] | IC50 [3] | Ki [3] | IC50 [4] | IC50 [5] | IC50 [6]

CCn1cc(C(=O)O)c(=O)c2cc(F)c(N3CCNCC3)nc21 [ENOXACIN]
Not Active: IC50 [1] | Ki [1] | IC50 [2] | Ki [2] | IC50 [3] | Ki [3] | IC50 [4] | IC50 [5] | IC50 [6]

CCC(=O)O[C@H]1[C@H](O[C@@H]2[C@@H](C)[C@H](O[C@H]3C[C@@](C)(OC)[C@@H](O)[C@H](C)O3)[C@@H](C)C(=O)O[C@H](CC)[C@@](C)(O)[C@H](O)[C@@H](C)C(=O)[C@H](C)C[C@@]2(C)O)O[C@H](C)C[C@@H]1N(C)C [ERYTHROMYCIN PROPIONATE]
Not Active: IC50 [1] | Ki [1] | IC50 [2] | Ki [2] | IC50 [3] | Ki [3] | IC50 [4] | IC50 [5] | IC50 [6]

COBALT(II) ACETYLACETONATE
Not Active: IC50 [1] | Ki [1] | IC50 [2] | Ki [2] | IC50 [3] | Ki [3] | IC50 [4] | Ki [4] | IC50 [5] | Ki [5] | IC50 [6] | Ki [6]

N[C@@H](Cc1ccc(F)cc1)C(=O)O
Not Active: IC50 [1] | Ki [1] | IC50 [2] | Ki [2] | IC50 [3] | Ki [3] | IC50 [4] | IC50 [5] | IC50 [6]

O=C(O)Cc1ccc(-c2ccccc2)cc1 [FELBINAC]
Not Active: IC50 [1] | Ki [1] | IC50 [2] | Ki [2] | IC50 [3] | Ki [3] | IC50 [4] | IC50 [5] | IC50 [6]

NC[C@H]1O[C@H](O[C@H]2[C@H](O)[C@@H](O[C@H]3O[C@H](CO)[C@@H](O)[C@H](N)[C@H]3O)[C@H](N)C[C@@H]2N)[C@H](O)[C@@H](O)[C@@H]1O [KANAMYCIN]
Not Active: IC50 [1] | Ki [1] | IC50 [2] | Ki [2] | IC50 [3] | Ki [3] | IC50 [4] | IC50 [5] | IC50 [6]

C[C@]12CCC(=O)C=C1CC[C@@H]1[C@@H]2[C@@H](O)C[C@@]2(C)[C@H]1CC[C@]2(O)C(=O)CO [HYDROCORTISONE]
Not Active: IC50 [1] | Ki [1] | IC50 [2] | Ki [2] | IC50 [3] | Ki [3] | IC50 [4] | IC50 [5] | IC50 [6]

Nc1nc(N)nc(NC2CC2)n1 [CYROMAZINE]
Not Active: IC50 [1] | Ki [1] | IC50 [2] | Ki [2] | IC50 [3] | Ki [3] | IC50 [4] | IC50 [5] | IC50 [6]

OCCO [ETHYLENE GLYCOL]
Not Active: IC50 [1] | Ki [1] | IC50 [2] | Ki [2] | IC50 [3] | Ki [3] | IC50 [4] | IC50 [5] | IC50 [6]

CCN[C@@H](C)Cc1cccc(C(F)(F)F)c1 [DEXFENFLURAMINE]
Not Active: IC50 [1] | Ki [1] | IC50 [2] | Ki [2] | IC50 [3] | Ki [3] | IC50 [4] | IC50 [5] | IC50 [6]
